Results published in US11834430B2, “Compounds useful as inhibitors of isoprenylcysteine carboxyl methyltransferase” (AGENCY FOR SCIENCE, TECHNOLOGY AND RESEARCH, priority 2017, dated 2023).
“And” between values parts separate entries of the source, which are not always exact repeats. Equal values may be shown once.

These molecules were tested against human ICMT (Homo sapiens (Human), UniProt O60725) (assay: ICMT biochemical assay (Methyltransferase-Glo)). Details: ICMT membrane extract from Sf-9 cells; 30 min preincubation, 90 min reaction.
Protocol: Recombinant human ICMT was prepared by infection of Sf9 cells with a recombinant baculovirus containing the entire open reading frame of the human ICMT cDNA.
Cells producing ICMT were harvested 66 hours post-infection. The cells are homogenized and resuspended in 5 mM NaHPO4 (pH 7.0), and a cocktail of protease inhibitors. The membrane was pelleted, after removal of nuclei and debris, at 100,000×g for 1 hour. Membranes were resuspended in 5 mM NaHPO4 (pH 7.0) with 5 mM EDTA at 10-12 mg/ml. The suspension was stored at −80° C. in multiple aliquots.
An ICMT enzymatic assay was developed using Promega's Methyltransferase-GloTMreagents. In the assay, ICMT catalyzes the methylation of the N-Acetyl-S-farnesyl-L-cysteine by transferring a methyl group from SAM to the farnesylated cysteine and further converts the SAM to SAH. The methyltransferase activity is measured based on the amount of SAH produced from the reaction through the use of coupling enzymes that convert the SAH to ATP. The MTase-Glo detection solution then catalyzes the formation of light from ATP.
A final concentration of 2.0 μM and 20 μM of SAM and peptide were added and further incubated for 90 minutes at room temperature before adding the MTase Glo and detection reagent. Reaction signals were detected using microplate readers on luminescent mode (Satire Tecan). The IC50 was determined by nonlinear regression, using GraphPad Prism version, 5.03.

human ICMT, sequence (O60725 whole entry): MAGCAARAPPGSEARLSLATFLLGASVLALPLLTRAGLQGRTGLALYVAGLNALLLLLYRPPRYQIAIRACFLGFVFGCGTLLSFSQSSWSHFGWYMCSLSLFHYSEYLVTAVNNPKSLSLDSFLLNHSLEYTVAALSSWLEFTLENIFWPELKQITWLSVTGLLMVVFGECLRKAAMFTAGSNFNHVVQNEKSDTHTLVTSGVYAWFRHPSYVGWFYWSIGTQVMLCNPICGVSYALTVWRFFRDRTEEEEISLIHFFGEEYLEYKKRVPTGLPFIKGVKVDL

| IC50 | SMILES |
| --- | --- |
| 560 nM | N#Cc1ccc(OCCOc2cccc(-n3cncn3)c2)cc1 [Compound 1, 4-(2-(3-(1H-1,2,4-triazol-1-yl)phenoxy)ethoxy)benzonitrile] |
| 630 nM and 490 nM | N#Cc1ccc(OCCOc2cccc(-c3cncs3)c2)cc1 [Compound 3, 4-(2-(3-(thiazol-5-yl)phenoxy)ethoxy)benzonitrile] |
| 260 nM and 220 nM and 390 nM | Cc1nccn1-c1cccc(OCCOc2ccc(C#N)nc2)c1 [Compound 4, 5-(2-(3-(2-methyl-1H-imidazol-1-yl)phenoxy)ethoxy)picolinonitrile] |
| 2 nM and 1 nM and 2.4 nM | Cc1nccn1-c1cccc(OCCOc2ccc(C#N)cc2F)c1 [Compound 6, 3-fluoro-4-(2-(3-(2-methyl-1H-imidazol-1-yl)phenoxy)ethoxy)benzonitrile] |
| 3 nM | Cn1nccc1-c1cccc(OCCOc2ccc(C#N)cc2Cl)c1 [Compound 7, 3-chloro-4-(2-(3-(1-methyl-1H-pyrazol-5-yl)phenoxy)ethoxy)benzonitrile] |
| 0.2 nM and 0.36 nM | COc1cc(C#N)ccc1OCCOc1cccc(-n2ccnc2C)c1 [Compound 8, 3-methoxy-4-(2-(3-(2-methyl-1H-imidazol-1-yl)phenoxy)ethoxy)benzonitrile] |
| 0.1 nM and 0.18 nM | N#Cc1ccc(OCCOc2cccc(-n3ccnc3C3CC3)c2)c(Cl)c1 [Compound 9, 3-chloro-4-(2-(3-(2-cyclopropyl-1H-imidazol-1-yl)phenoxy)ethoxy)benzonitrile] |
| 80 nM | Cc1nccn1-c1cccc(OCCOc2ccc(C#N)cn2)c1 [Compound 10, 6-(2-(3-(2-methyl-1H-imidazol-1-yl)phenoxy)ethoxy)nicotinonitrile] |
| 20 nM | N#Cc1ccc(OCCOc2cccc(-c3cncs3)c2)c(Cl)c1 [Compound 11, 3-chloro-4-(2-(3-(thiazol-5-yl)phenoxy)ethoxy)benzonitrile] |
| 210 nM | N#Cc1ccc(OCCOc2cccc(-c3cncs3)c2)c(F)c1 [Compound 12, 3-fluoro-4-(2-(3-(thiazol-5-yl)phenoxy)ethoxy)benzonitrile] |
| 11 nM | Cc1ccc(OCCOc2cccc(-n3ccnc3C)c2)c(C#N)c1 [Compound 13, 5-methyl-2-(2-(3-(2-methyl-1H-imidazol-1-yl)phenoxy)ethoxy)benzonitrile] |
| 15 nM | Cn1nccc1-c1cccc(OCCOc2ccc(C#N)cc2F)c1 [Compound 14, 3-fluoro-4-(2-(3-(1-methyl-1H-pyrazol-5-yl)phenoxy)ethoxy)benzonitrile] |
| 1.1 nM and 0.9 nM | COc1cc(C#N)ccc1OCCOc1cccc(-c2ccnn2C)c1 [Compound 15, 3-methoxy-4-(2-(3-(1-methyl-1H-pyrazol-5-yl)phenoxy)ethoxy)benzonitrile] |
| 8 nM and 11 nM | COc1cc(C#N)ccc1OCCOc1cccc(-c2cncs2)c1 [Compound 16, 3-methoxy-4-(2-(3-(thiazol-5-yl)phenoxy)ethoxy)benzonitrile] |
| 16 nM | N#Cc1ccc(OCCOc2cccc(-n3ccnc3C3CC3)c2)c(F)c1 [Compound 17, 4-(2-(3-(2-cyclopropyl-1H-imidazol-1-yl)phenoxy)ethoxy)-3-fluorobenzonitrile] |
| 3 nM | Cc1ccc(OCCOc2cccc(-c3ccnn3C)c2)c(C#N)c1 [Compound 18, 5-methyl-2-(2-(3-(1-methyl-1H-pyrazol-5-yl)phenoxy)ethoxy)benzonitrile] |
| 4.5 nM | COc1cc(C#N)ccc1OCCOc1cccc(-n2ccnc2C2CC2)c1 [Compound 19, 4-(2-(3-(2-cyclopropyl-1H-imidazol-1-yl)phenoxy)ethoxy)-3-methoxybenzonitrile] |
| 0.17 nM and 0.16 nM | N#Cc1ccc(OCCOc2cccc(-n3ccnc3C3CC3)c2)cc1 [Compound 20, 4-(2-(3-(2-cyclopropyl-1H-imidazol-1-yl)phenoxy)ethoxy)benzonitrile] |
| 298 nM | N#Cc1ccc(OCCOc2cccc(-n3cnnc3)c2)cc1 [Compound 21, 4-(2-(3-(4H-1,2,4-triazol-4-yl)phenoxy)ethoxy)benzonitrile] |
| 3 nM | Cc1nccn1-c1cccc(OC(C)COc2ccc(C#N)cc2Cl)c1 (stereo not drawn) [Compound 22, 3-chloro-4-(2-(3-(2-methyl-1H-imidazol-1-yl)phenoxy)propoxy)benzonitrile] |
| 61 nM | Cc1nccn1-c1cccc(OC(C)COc2ccc(C#N)cc2F)c1 (stereo not drawn) [Compound 23, 3-fluoro-4-(2-(3-(2-methyl-1H-imidazol-1-yl)phenoxy)propoxy)benzonitrile] |

| IC50 | SMILES |
| --- | --- |
| 1 nM | Cc1nccn1-c1cc(OCCOc2ccc(C#N)cc2Cl)ccn1 [Compound 24, 3-chloro-4-(2-((2-(2-methyl-1H-imidazol-1-yl)pyridin-4-yl)oxy)ethoxy)benzonitrile] |
| 23 nM | Cc1nccn1-c1cccc(OCC(C)Oc2ccc(C#N)cc2F)c1 (stereo not drawn) [Compound 25, 3-fluoro-4-((1-(3-(2-methyl-1H-imidazol-1-yl)phenoxy)propan-2-yl)oxy)benzonitrile] |
| 69 nM | C#Cc1ccc(OCCOc2cccc(-n3ccnc3C)c2)cc1 [Compound 26, 1-(3-(2-(4-ethynylphenoxy)ethoxy)phenyl)-2-methyl-1H-imidazole] |
| 290 nM | Cc1cc(F)ccc1OCCOc1cccc(-c2ccnn2C)c1 [Compound 27, 5-(3-(2-(4-fluoro-2-methylphenoxy)ethoxy)phenyl)-1-methyl-1H-pyrazole] |
| 1.6 nM | CC(COc1cccc(-n2ccnc2C2CC2)c1)Oc1ccc(C#N)cc1F (stereo not drawn) [Compound 28, 4-((1-(3-(2-cyclopropyl-1H-imidazol-1-yl)phenoxy)propan-2-yl)oxy)-3-fluorobenzonitrile] |
| 0.08 nM | COc1cc(C#N)ccc1OC(C)COc1cccc(-n2ccnc2C)c1 (stereo not drawn) [Compound 29, 3-methoxy-4-((1-(3-(2-methyl-1H-imidazol-1-yl)phenoxy)propan-2-yl)oxy)benzonitrile] |
| 1.6 nM | Cc1cc(C#N)ccc1OC(C)COc1cccc(-c2ccnn2C)c1 (stereo not drawn) [Compound 30, 3-methyl-4-((1-(3-(1-methyl-1H-pyrazol-5-yl)phenoxy)propan-2-yl)oxy)benzonitrile] |
| 1.2 nM | COc1cc(C#N)ccc1OC(C)COc1cccc(-c2ccnn2C)c1 (stereo not drawn) [Compound 31, 3-methoxy-4-((1-(3-(1-methyl-1H-pyrazol-5-yl)phenoxy)propan-2-yl)oxy)benzonitrile] |
| 200 nM | Cc1nccn1-c1cccc(O[C@H](C)COc2ccc(C#N)cc2Cl)c1 [Compound 32, (R)-3-chloro-4-(2-(3-(2-methyl-1H-imidazol-1-yl)phenoxy)propoxy)benzonitrile] |
| 1.5 nM | Cc1nccn1-c1cccc(O[C@@H](C)COc2ccc(C#N)cc2Cl)c1 [Compound 33, (S)-3-chloro-4-(2-(3-(2-methyl-1H-imidazol-1-yl)phenoxy)propoxy)benzonitrile] |
| 1470 nM | Cc1nccn1-c1cccc(O[C@H](C)COc2ccc(C#N)cc2F)c1 [Compound 34, (R)-3-fluoro-4-(2-(3-(2-methyl-1H-imidazol-1-yl)phenoxy)propoxy)benzonitrile] |
| 3.6 nM | Cc1nccn1-c1cccc(O[C@@H](C)COc2ccc(C#N)cc2F)c1 [Compound 35, (S)-3-fluoro-4-(2-(3-(2-methyl-1H-imidazol-1-yl)phenoxy)propoxy)benzonitrile] |
| 140 nM | Cc1nccn1-c1cccc(OCCOc2ccc(C#N)cc2OC(F)(F)F)c1 [Compound 36, 4-(2-(3-(2-methyl-1H-imidazol-1-yl)phenoxy)ethoxy)-3-(trifluoromethoxy)benzonitrile] |
| 310 nM | N#Cc1ccc(OCCOc2cccc(-n3cnnc3)c2)c(F)c1 [Compound 38, 4-(2-(3-(4H-1,2,4-triazol-4-yl)phenoxy)ethoxy)-3-fluorobenzonitrile] |
| 4.7 nM | Cc1cc(C#N)ccc1O[C@H](C)COc1cccc(-c2ccnn2C)c1 [Compound 39, (R)-3-methyl-4-((1-(3-(1-methyl-1H-pyrazol-5-yl)phenoxy)propan-2-yl)oxy)benzonitrile] |
| 9.5 nM | Cc1cc(C#N)ccc1O[C@@H](C)COc1cccc(-c2ccnn2C)c1 [Compound 40, (S)-3-methyl-4-((1-(3-(1-methyl-1H-pyrazol-5-yl)phenoxy)propan-2-yl)oxy)benzonitrile] |
| 12 nM | C[C@@H](COc1cccc(-n2ccnc2C2CC2)c1)Oc1ccc(C#N)cc1F [Compound 42, (S)-4-((1-(3-(2-cyclopropyl-1H-imidazol-1-yl)phenoxy)propan-2-yl)oxy)-3-fluorobenzonitrile] |
| 780 nM | Cc1nccn1-c1cccc(OCC(C)Oc2ccc(C#N)cc2Cl)c1 (stereo not drawn) [Compound 44, 3-chloro-4-((1-(3-(2-methyl-1H-imidazol-1-yl)phenoxy)propan-2-yl)oxy)benzonitrile] |
| 0.64 nM | COc1cc(C#N)ccc1O[C@H](C)COc1cccc(-c2ccnn2C)c1 [Compound 48, (R)-3-methoxy-4-((1-(3-(1-methyl-1H-pyrazol-5-yl)phenoxy)propan-2-yl)oxy)benzonitrile] |
| 0.3 nM | Cc1cc(C#N)ccc1O[C@@H](C)COc1cccc(-n2ccnc2C2CC2)c1 [Compound 49, (S)-4-((1-(3-(2-cyclopropyl-1H-imidazol-1-yl)phenoxy)propan-2-yl)oxy)-3-methylbenzonitrile] |
| 12 nM | Fc1cc(Cl)ccc1OCCOc1cccc(-n2ccnc2C2CC2)c1 [Compound 50, 1-(3-(2-(4-chloro-2-fluorophenoxy)ethoxy)phenyl)-2-cyclopropyl-1H-imidazole] |
